Experimental data: US20230322789A1, “PYRAZOLOPYRIDAZINONE COMPOUND, AND PHARMACEUTICAL COMPOSITION AND USE THEREOF” (BroadenBio Co., Ltd., priority 2020, published 2023)

Tests used:
Human Jurkat-E6-1 cells = experiment: Measurement of IL-2 secretion of Jurkat cells by ELISA; assay type: cell-based; conditions: anti-CD3/anti-CD28 stimulation 24 hours; for activity at 3 µM / activity at 1 µM / activity at 0.33 µM: Homo sapiens, Jurkat E6.1, read-out: Percentage of the amount of IL-2 secreted from compound treated/DMSO-treated cells; for activity at 1 µM: test compound 1.0 μM; for activity at 0.33 µM: test compound 0.33 μM
Method in brief: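 Jurkat-E6-1 cells pre-incubated with compound for 30 min at 37° C, then stimulated 24 h with plate-bound anti-CD3 plus soluble anti-CD28. Secreted IL-2 in medium quantified by sandwich ELISA against a standard curve; expressed as percent of DMSO-treated cells.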

HPK1 = HPK1 (Homo sapiens (Human), UniProt Q92918); experiment: HPK1 kinase activity inhibition test (ADP-Glo, luminescence); assay type: biochemical; conditions: HPK1 5 nM, ATP 2 μM, read-out: IC50, inhibitory effects of compounds on HPK1 kinase activity
HPK1, sequence (Q92918 whole entry): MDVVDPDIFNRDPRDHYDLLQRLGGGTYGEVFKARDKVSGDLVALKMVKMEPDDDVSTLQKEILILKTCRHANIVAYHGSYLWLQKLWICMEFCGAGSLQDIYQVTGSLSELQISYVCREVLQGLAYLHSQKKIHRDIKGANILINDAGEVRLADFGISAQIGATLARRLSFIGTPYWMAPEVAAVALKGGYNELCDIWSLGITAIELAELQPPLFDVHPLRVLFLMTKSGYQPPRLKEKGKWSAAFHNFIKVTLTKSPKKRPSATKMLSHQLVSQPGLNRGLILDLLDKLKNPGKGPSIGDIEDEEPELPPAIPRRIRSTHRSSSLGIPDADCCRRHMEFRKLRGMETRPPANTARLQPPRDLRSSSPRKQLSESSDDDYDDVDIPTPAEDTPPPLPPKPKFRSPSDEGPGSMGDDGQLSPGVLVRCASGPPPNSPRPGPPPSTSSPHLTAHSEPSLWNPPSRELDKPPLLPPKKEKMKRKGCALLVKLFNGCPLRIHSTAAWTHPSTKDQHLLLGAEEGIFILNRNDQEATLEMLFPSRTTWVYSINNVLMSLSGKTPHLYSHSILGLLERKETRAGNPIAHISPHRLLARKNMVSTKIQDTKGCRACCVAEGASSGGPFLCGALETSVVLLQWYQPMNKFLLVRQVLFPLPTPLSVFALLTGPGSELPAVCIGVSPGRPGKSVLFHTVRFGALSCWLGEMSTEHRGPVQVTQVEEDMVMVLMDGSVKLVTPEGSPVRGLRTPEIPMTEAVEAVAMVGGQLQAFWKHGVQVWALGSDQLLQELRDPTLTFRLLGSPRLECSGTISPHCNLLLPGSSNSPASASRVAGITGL
Method in brief: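 HPK1 autophosphorylation was run without added substrate. Kinase and compound were preincubated 10 min at 25° C., then ATP was added for 60 min at 25° C. ADP formed was detected by ADP-Glo luminescence, and IC50 was taken from a four-parameter nonlinear fit.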

| SMILES | activity at 3 µM (Human Jurkat-E6-1 cells; test compound 3.0 μM) | IC50 (HPK1) | activity at 1 µM (Human Jurkat-E6-1 cells) | activity at 0.33 µM (Human Jurkat-E6-1 cells) | Percentage of the amount of IL-2 secreted from compound treated/DMSO-treated cells (Human Jurkat-E6-1 cells; test compound 3.0 μM) |
| --- | --- | --- | --- | --- | --- |
| Cc1cccc(F)c1-n1nc2c(-c3ccc(OCC4CNCCN4)cc3)n[nH]c2cc1=O (stereo not shown) [Compound 93, 5-(2-fluoro-6-methylphenyl)-3-(4-(piperazin-2-ylmethoxy)phenyl)-1H-pyrazolo[4,3-c]pyridazin-6(5H)-one] | 210% | ≤ 50 nM | – | – | – |
| CN1CCN(c2ccc(-c3n[nH]c4cc(=O)n(-c5c(F)cccc5Cl)nc34)cn2)CC1 [Compound 107] | 599% | ≤ 50 nM | – | – | – |
| COc1cccc(F)c1-n1nc2c(-c3ccc(N4CCN5CCOC[C@@H]5C4)cc3)n[nH]c2cc1=O [Compound 135, (S)-5-(2-fluoro-6-methoxyphenyl)-3-(4-(hexahydropyrazino[2,1-c][1,4]oxazin-8(1H)-yl)phenyl)-1H-pyrazolo[4,3-c]pyridazin-6(5H)-one] | 964% | ≤ 50 nM | – | – | – |
| Cc1cccc(F)c1-n1nc2c(-c3ccc(N4CCC(N5CCN(C)CC5)CC4)cc3)n[nH]c2cc1=O [Compound 143, 5-(2-fluoro-6-methylphenyl)-3-(4-(4-(4-methylpiperazin-1-yl)piperidin-1-yl)phenyl)-1H-pyrazolo[4,3-c]pyridazin-6(5H)-one] | 786% | ≤ 50 nM | – | – | – |
| COc1cc(C#N)cc(F)c1-n1nc2c(-c3ccc(N4CCN5C(=O)OCC5C4)cc3)n[nH]c2cc1=O (stereo not shown) [Compound 124, 3-fluoro-5-methoxy-4-(6-oxo-3-(4-(3-oxotetrahydro-1H-oxazolo[3,4-a]pyrazin-7(3H)-yl)phenyl)-1H-pyrazolo[4,3-c]pyridazin-5(6H)-yl)benzonitrile] | 570% | ≤ 50 nM | – | – | – |
| Cc1cccc(F)c1-n1nc2c(-c3ccc4c(c3)CN3C(=O)OC[C@@H]3C4)n[nH]c2cc1=O [Compound 177, (S)-7-(5-(2-fluoro-6-methylphenyl)-6-oxo-5,6-dihydro-1H-pyrazolo[4,3-c]pyridazin-3-yl)-10,10a-dihydro-1H-oxazolo[3,4-b]isoquinolin-3(5H)-one] | 481% | ≤ 50 nM | – | – | – |
| COc1cccc(F)c1-n1nc2c(-c3ccc(N4CCC(C)(N)CC4)cc3)n[nH]c2cc1=O [Compound 146, 3-(4-(4-amino-4-methylpiperidin-1-yl)phenyl)-5-(2-fluoro-6-methoxyphenyl)-1H-pyrazolo[4,3-c]pyridazin-6(5H)-one] | 537% | ≤ 50 nM | – | – | – |
| [2H]C([2H])([2H])N1CCc2ccc(-c3n[nH]c4cc(=O)n(-c5c(C)cccc5F)nc34)cc2C1 [Compound 157, 5-(2-fluoro-6-methylphenyl)-3-(2-(methyl-d3)-1,2,3,4-tetrahydroisoquinolin-7-yl)-1H-pyrazolo[4,3-c]pyridazin-6(5H)-one] | 935% | ≤ 50 nM | – | – | – |
| COc1cccc(F)c1-n1nc2c(-c3cccc(N4CC5CCC(C4)N5C)c3)n[nH]c2cc1=O [Compound 202, 5-(2-fluoro-6-methoxyphenyl)-3-(3-(8-methyl-3,8-diazabicyclo[3.2.1]octan-3-yl)phenyl)-1H-pyrazolo[4,3-c]pyridazin-6(5H)-one] | – | ≤ 50 nM | 539% | – | – |
| CCc1cccc(F)c1-n1nc2c(-c3ccc(N4CCN(C)CC4)cc3)n[nH]c2cc1=O [Compound 8, 5-(2-ethyl-6-fluorophenyl)-3-(4-(4-methylpiperazin-1-yl)phenyl)-1H-pyrazolo[4,3-c]pyridazin-6(5H)-one] | – | ≤ 50 nM | – | 306% | – |
| Cc1cccc(F)c1-n1nc2c(-c3ccc(N4CCC(N5CCOCC5)CC4)cc3)n[nH]c2cc1=O [Compound 142, 5-(2-fluoro-6-methylphenyl)-3-(4-(4-morpholinopiperidin-1-yl)phenyl)-1H-pyrazolo[4,3-c]pyridazin-6(5H)-one] | 708% | ≤ 50 nM | – | – | – |
| COc1cccc(F)c1-n1nc2c(-c3ccc(N4CCC(N5CCN(C)CC5)CC4)cc3)n[nH]c2cc1=O [Compound 145, 5-(2-fluoro-6-methoxyphenyl)-3-(4-(4-(4-methylpiperazin-1-yl)piperidin-1-yl)phenyl)-1H-pyrazolo[4,3-c]pyridazin-6(5H)-one] | 776% | ≤ 50 nM | – | – | – |
| COc1cccc(C)c1-n1nc2c(-c3ccc(N4CCN(C)CC4)cc3)n[nH]c2cc1=O [Compound 2, 5-(2-methoxy-6-methylphenyl)-3-(4-(4-methylpiperazin-1-yl)phenyl)-1H-pyrazolo[4,3-c]pyridazin-6(5H)-one] | 238% | 50 to 500 nM | – | – | – |
| COc1cccc(F)c1-n1nc2c(-c3cccc(N4CCN(C)CC4)c3)n[nH]c2cc1=O [Compound 199, 5-(2-fluoro-6-methoxyphenyl)-3-(3-(4-methylpiperazin-1-yl)phenyl)-1H-pyrazolo[4,3-c]pyridazin-6(5H)-one] | – | ≤ 50 nM | 328% | – | – |
| COc1cccc(F)c1-n1nc2c(-c3ccc(N4CCC(N5CCOCC5)CC4)cc3)n[nH]c2cc1=O [Compound 144, 5-(2-fluoro-6-methoxyphenyl)-3-(4-(4-morpholinopiperidin-1-yl)phenyl)-1H-pyrazolo[4,3-c]pyridazin-6(5H)-one] | 716% | ≤ 50 nM | – | – | – |
| COc1cccc(F)c1-n1nc2c(-c3ccc(N4CCC(C)(OC)CC4)cc3)n[nH]c2cc1=O [Compound 141, 5-(2-fluoro-6-methoxyphenyl)-3-(4-(4-methoxy-4-methylpiperidin-1-yl)phenyl)-1H-pyrazolo[4,3-c]pyridazin-6(5H)-one] | 390% | ≤ 50 nM | – | – | – |
| COc1cc(C(=O)N(C)C)cc(F)c1-n1nc2c(-c3ccc(N4CCN(C)CC4)cc3)n[nH]c2cc1=O [Compound 80, 3-fluoro-5-methoxy-N,N-dimethyl-4-(3-(4-(4-methylpiperazin-1-yl)phenyl)-6-oxo-1H-pyrazolo[4,3-c]pyridazin-5(6H)-yl)benzamide] | 191% | ≤ 50 nM | – | – | – |
| CN1CCN(c2ccc(-c3n[nH]c4cc(=O)n(-c5c(F)cccc5C5CC5)nc34)cc2)CC1 [Compound 34, 5-(2-fluoro-6-cyclopropylphenyl)-3-(4-(4-methylpiperazin-1-yl)phenyl)-1H-pyrazolo[4,3-c]pyridazin-6(5H)-one] | – | ≤ 50 nM | 284% | – | – |
| Cc1cccc(F)c1-n1nc2c(-c3ccc(N4CCN(C)C(C(C)(C)O)C4)cc3)n[nH]c2cc1=O (stereo not shown) [Compound 125, 5-(2-fluoro-6-methylphenyl)-3-(4-(3-(2-hydroxylprop-2-yl)-4-methylpiperazin-1-yl)phenyl)-1H-pyrazolo[4,3-c]pyridazin-6(5H)-one] | 216% | ≤ 50 nM | – | – | – |
| Cc1ccccc1-n1nc2c(-c3ccc(N4CCN(C)CC4)cc3)n[nH]c2cc1=O [Compound 5, 5-(2-methylphenyl)-3-(4-(4-methylpiperazin-1-yl)phenyl)-1H-pyrazolo[4,3-c]pyridazin-6(5H)-one] | – | 50 to 500 nM | 162% | – | – |
| Cc1cccc(F)c1-n1nc2c(-c3ccc(N4CCC(O)CC4)cc3)n[nH]c2cc1=O [Compound 138, 5-(2-fluoro-6-methylphenyl)-3-(4-(4-hydroxylpiperidin-1-yl)phenyl)-1H-pyrazolo[4,3-c]pyridazin-6(5H)-one] | 873% | ≤ 50 nM | – | – | – |
| Cc1cccc(F)c1-n1nc2c(-c3ccc(N4CCN(C)CC4CO)cc3)n[nH]c2cc1=O (stereo not shown) [Compound 130, 5-(2-fluoro-6-methylphenyl)-3-(4-(2-(hydroxymethyl)-4-methylpiperazin-1-yl)phenyl)-1H-pyrazolo[4,3-c]pyridazin-6(5H)-one] | 454% | ≤ 50 nM | – | – | – |
| Cc1cccc(F)c1-n1nc2c(-c3ccc4c(c3)CN(CCO)CC4)n[nH]c2cc1=O [Compound 162, 5-(2-fluoro-6-methylphenyl)-3-(2-(2-hydroxyethyl)-1,2,3,4-tetrahydroisoquinolin-7-yl)-1H-pyrazolo[4,3-c]pyridazin-6(5H)-one] | 586% | ≤ 50 nM | – | – | – |
| CN1CCN(c2ccc(-c3n[nH]c4cc(=O)n(-c5cccc6c5OCO6)nc34)cc2)CC1 [Compound 76] | 561% | ≤ 50 nM | – | – | – |
| CCc1cccc(F)c1-n1nc2c(-c3cccc(N4CCN(C)CC4)c3)n[nH]c2cc1=O [Compound 200, 5-(2-ethyl-6-fluorophenyl)-3-(3-(4-methylpiperazin-1-yl)phenyl)-1H-pyrazolo[4,3-c]pyridazin-6(5H)-one] | 286% | ≤ 50 nM | – | – | – |
| COc1cccc(F)c1-n1nc2c(-c3cccc(N4CCCC(N)C4)c3)n[nH]c2cc1=O (stereo not shown) [Compound 204] | – | ≤ 50 nM | – | – | 260% |
| [2H]C([2H])([2H])N1CCN(c2ccc(-c3n[nH]c4cc(=O)n(-c5c(C)cccc5F)nc34)cc2)CC1 [Compound 81, 5-(2-fluoro-6-methylphenyl)-3-(4-(4-(methyl-d3)piperazin-1-yl)phenyl)-1H-pyrazolo[4,3-c]pyridazin-6(5H)-one] | 679% | ≤ 50 nM | – | – | – |
| CCS(=O)(=O)N1CCN(c2ccc(-c3n[nH]c4cc(=O)n(-c5c(C)cccc5F)nc34)cn2)CC1 [Compound 105] | 623% | ≤ 50 nM | – | – | – |
| COc1cccc(F)c1-n1nc2c(-c3ccc(C4=CCN(C)CC4)cc3)n[nH]c2cc1=O [Compound 23, 5-(2-fluoro-6-methoxyphenyl)-3-(4-(1-methyl-1,2,3,6-tetrahydro-pyridin-4-yl)phenyl)-1H-pyrazolo[4,3-c]pyridazin-6(5H)-one] | – | ≤ 50 nM | – | 379% | – |
